Measured values published in patent US7772383B2, “Chemical PCR: Compositions for enhancing polynucleotide amplification reactions” (The Trustees of Princeton University, priority 2002, dated 2010).

Tests used:
Assay type in all cases: biochemical
Taq polymerase = target: T1, Taq polymerase (Thermus aquaticus, UniProt P19821); test: Predicted thermostability (half-life) of Taq polymerase in the presence of diols
T1 construct: purchased Stratagene
Protocol: It is possible that this discrepancy was due to the greatly diminished thermostability of the polymerase at the cutoff concentrations. Based on thermodynamic data, Taq polymerase in the absence of template is predicted to have a half-life of about 8 seconds at 95° C. in the presence of 0.9M 1,2-butanediol and 10 seconds in the presence of 0.6M 1,5-pentanediol. These values will be increased in the presence of template, but will still be very low, especially during the initial cycles when template concentration is limited.

[1] = system: bovine brain glycolipid transfer protein (GTP) cDNA (660 bp); test: Pilot low temperature PCR of GTP with 1,5-pentanediol; settings: normalized: 1,5-pentanediol (95/72° C.) = 1
Protocol: (§1) Amplification reactions were carried out under the following general conditions. Those skilled in the art will appreciate, however, that to the extent that the conditions (set forth in this application) required for specific experiments described in this example were inconsistent with the following general conditions, limited exceptions to the following general conditions were made The general conditions were as follows: 10 Mm Tris-HCl (Ph 8.8), 50 Mm KCl, 1.5 Mm MgCl2, 0.01% (w/v) gelatin, 0.2 Um primers, 0.06 ng/ul template, 0.2 Mm each Dntp, 0.04 U/ul Taq polymerase. The templates used were bovine brain N-WASP cDNA (1518 bp), a 996 by segment of human myeloid leukocyte c-jun cDNA, a 511 by segment of human prostate-specific membrane antigen (PSM) cDNA, and bovine brain glycolipid transfer protein (GTP) cDNA (660 bp). cDNA synthesis was carried out using the FIRST-STRAND® RT-PCR kit from Stratagene on the respective mRNAs purchased from Clontech. All amplification reactions for gene were carried out using a single master batch of cDNA. Taq polymerase and dNTPs were obtained from Stratagene. Primers were obtained from Genosys. Primer melting temperatures (Tms) were calculated using the Genosys oligo calculator program. The sequences of the primers were as follows.
(§2) Polymerase chain reactions for the N-WASP gene were conducted on a ROBOCYCLER® Gradient 40 thermal cycler from Stratagene using 100 ul solutions in 600 ul thin-walled tubes. For expediency, amplification of c-jun, PSM and GTP was carried out in a ROBOCYCLER® Gradient 96 thermal cycler from Stratagene using 50 ul solutions in 200 ul thin-walled tubes. Prior to Taq polymerase addition, a hotstart protocol was carried out that consisted of an initial cycle of 95° C. for 5 minutes (11) to ensure complete first-strand separation, followed by a cycle of 54° C. for 5 minutes. Amplifications were run for 30 cycles. Denaturation was done for 1 minute at the minimum temperatures that yielded discernable amplification: 92° C. for N-WASP and 95° C. for c-jun, PSM and GTP. Extension was done at 72° C. for periods depending on target length: 2 minutes for N-WASP, 1.5 minutes for c-jun and GTP, and 1 minute for PSM. Annealings were carried out either at fixed concentrations of additives using temperature gradients of 38-56° C. for N-WASP and 44-58° C. for the other targets, or at varying concentrations of additives using fixed temperatures of 41° C. for N-WASP, 50° C. for c-jun and PSM, and 54° C. for GTP.
Amplification products were analyzed by agarose gel electrophoresis on 0.8% agarose gels in which 20 ul reaction products were loaded with 4 ul loading buffer. Gels were stained with ethidium bromide, visualized on a UV transilluminator (Fisher), and documented by photography. Densitometric quantitation of amplification products was carried out using IMAGE SCANNER® and IMAGE MASTER® software from Amersham Pharmacia. Background correction was done using the software's rolling disc method. […] GTP was used as the target because it has the lowest GC content of the three templates used. PCR reactions were carried out in the presence of 1.0 and 1.5M 1,5-pentanediol under the conditions of 85° C. denaturing and 53° C. extension, using a 50° C. annealing temperature. In addition, 1.5M and 2.0M 1,5-pentandediol were tested using an 80° C. denaturing temperature, with identical annealing and extension temperature. Finally, 2.0, 2.5, and 3.0M 1,5-pentanediol were tested in GTP amplification employing a 75° C. denaturation temperature.

[2] = system: human myeloid leukocyte c-jun cDNA; test: PCR amplification of c-jun with lower denaturation/extension temperatures; settings: for Potency: annealing 50° C.
Protocol: as §1, §2
Amplification products were analyzed by agarose gel electrophoresis on 0.8% agarose gels in which 20 ul reaction products were loaded with 4 ul loading buffer. […] Densitometric quantitation of amplification products was carried out using IMAGE SCANNER® and IMAGE MASTER® software from Amersham Pharmacia. […]

T1 sequence (P19821 whole entry): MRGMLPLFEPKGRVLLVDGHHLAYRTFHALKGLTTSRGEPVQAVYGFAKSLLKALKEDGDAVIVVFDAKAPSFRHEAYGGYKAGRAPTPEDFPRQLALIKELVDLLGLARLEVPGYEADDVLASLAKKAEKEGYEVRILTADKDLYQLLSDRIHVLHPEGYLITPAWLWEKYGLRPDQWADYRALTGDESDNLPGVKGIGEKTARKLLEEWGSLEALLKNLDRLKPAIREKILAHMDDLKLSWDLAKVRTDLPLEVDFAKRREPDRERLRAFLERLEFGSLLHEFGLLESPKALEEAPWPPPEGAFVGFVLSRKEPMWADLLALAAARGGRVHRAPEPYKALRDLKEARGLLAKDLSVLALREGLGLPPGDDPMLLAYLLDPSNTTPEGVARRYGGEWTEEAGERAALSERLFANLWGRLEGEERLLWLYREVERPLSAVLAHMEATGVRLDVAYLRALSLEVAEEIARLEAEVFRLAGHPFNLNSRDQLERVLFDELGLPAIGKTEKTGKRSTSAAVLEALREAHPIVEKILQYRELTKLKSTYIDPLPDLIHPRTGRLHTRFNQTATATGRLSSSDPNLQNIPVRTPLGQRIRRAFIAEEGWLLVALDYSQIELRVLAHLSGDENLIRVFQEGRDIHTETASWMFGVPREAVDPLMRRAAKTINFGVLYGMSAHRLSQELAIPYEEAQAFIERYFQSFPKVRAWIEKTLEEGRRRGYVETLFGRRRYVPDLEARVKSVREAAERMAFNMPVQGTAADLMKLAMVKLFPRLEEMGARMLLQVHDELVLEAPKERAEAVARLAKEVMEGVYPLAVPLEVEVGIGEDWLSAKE

| Compound | half-life of Taq polymerase (Taq polymerase) | GTP Potency ([1]; 75/50/53° C., 2.0 M 1,5-pentanediol) | GTP Potency ([1]; 75/50/53° C., 2.0 M 1,5-pentanediol, listed as 1,5-pentanediol) | GTP Potency ([1]; 75/50/53° C., 2.5 M 1,5-pentanediol) | GTP Potency ([1]; 75/50/53° C., 2.5 M 1,5-pentanediol, listed as 1,5-pentanediol) | GTP Potency ([1]; 75/50/53° C., 3.0 M 1,5-pentanediol) | GTP Potency ([1]; 75/50/53° C., 3.0 M 1,5-pentanediol, listed as 1,5-pentanediol) | GTP Potency ([1]; 80/50/53° C., 1.5 M 1,5-pentanediol) | GTP Potency ([1]; 80/50/53° C., 1.5 M 1,5-pentanediol, listed as 1,5-pentandediol) | GTP Potency ([1]; 80/50/53° C., 2.0 M 1,5-pentanediol) | GTP Potency ([1]; 80/50/53° C., 2.0 M 1,5-pentanediol, listed as 1,5-pentandediol) | GTP Potency ([1]; 85/50/53° C. denaturation/annealing/extension, 1.0 M 1,5-pentanediol) | GTP Potency ([1]; 85/50/53° C. denaturation/annealing/extension, 1.0 M 1,5-pentanediol, listed as 1,5-pentanediol) | GTP Potency ([1]; 85/50/53° C., 1.5 M 1,5-pentanediol) | GTP Potency ([1]; 85/50/53° C., 1.5 M 1,5-pentanediol, listed as 1,5-pentanediol) | Potency ([2]; 92/62° C. denaturation/extension, normalized: 1,5-pentanediol (95/72° C.) = 1) | Potency ([2]; 92/62° C. denaturation/extension, normalized: 1,5-pentanediol (95/72° C.) = 1, listed as 1,2-butanediol) | Effective ([2]; 92/62° C., concentration interval over which target band minus control is at least 50% of maximum volume) | Potency ([2]; 92/72° C. denaturation/extension, normalized: 1,5-pentanediol (95/72° C.) = 1) |
| --- | --- | --- | --- | --- | --- | --- | --- | --- | --- | --- | --- | --- | --- | --- | --- | --- | --- | --- | --- |
| OCCCCCO [1,5-Pentanediol] | ~10 s | 0.00 | unsuccessful | 0.00 | unsuccessful | 0.53 | succeeded in producing amplification | 0.00 | failed to produce any discernable amplification | 2.69 | high yield | 2.78 | strong amplification | 2.64 | strong amplification | – | – | – | – |
| CCC(O)CO (stereo not shown) [1,2-Butanediol] | – | – | – | – | – | – | – | – | – | – | – | – | – | – | – | 0.91 | High product yield | 0.72-1.02 | 0.00 |
